Results from patent US20050038259A1, “Hydroxyeicosenoic acid anaglogs” (priority 2001, published 2005).

What was measured:
[1] = test system: Rat neutrophils; assay: Test for elastase production by fMLP stimulation (elastase release inhibition); format: cell-based; details: Neutrophil; elastase release from cytochalasin B-primed rat neutrophils stimulated with fMLP (1 μM); elastase activity in supernatant
Method: Rat neutrophils preparation was obtained 15-18 hrs after intraperitoneal injection of a 1% sterile casein solution in saline (120 mL/kg). Cells were harvested by peritoneal lavage after the decapitation. The lavage fluid was ice-cold PBS (Phosphate-Buffered Saline). Peritoneal exudates were pooled, centrifuged and suspended in HBSS (Hanks' Balanced Salt Solution) at 1×10^7 cells/mil. Cytochalasin B (final concentration: 5 μg/ml) were added to prime the cells. The cells were added into a 96-well culture plate (190 μL/well) and then the compounds of the present invention at various concentrations (10^−7 to 3×10^−5 M) were added and incubated at 37° C. in an atmosphere of 5% CO2 in air. After 10 minutes, fMLP (20 μM, 10 μL) was added, while 10 μL of an HBSS solution containing 0.4% ethanol was added to the group to which no fMLP was added. After gently stirring, cells were incubated for further 10 minutes. The reaction was stopped on ice, and an incubated supernatant was recovered by centrifugation.
Elastase activity in the incubated supernatant was measured using a specific elastase substrate, N-succinyl-L-alanyl-L-alanyl-L-proline-valine-MCA (Peptide Institute, Inc., Osaka), 0.12 mM in 50 mM Tris-HCl (pH 8.0). Fifty microliter of an incubated supernatant was added to the substrate solution (50 μL) and incubated at 37° C. for 30 minutes. Elastase activity was assayed at a wavelength of 360 nm at excitation and 480 nm at emission.
Elastase release-inhibiting activity (inhibition ratio) was calculated according to the following equation: Inhibition ratio (%)={1−(A−C)/(B−C)}×100 wherein A stands for a fluorescence intensity when […]; and C stands for a fluorescence intensity when fMLP (1 μM) was not added.
Inhibitory concentration of 50% (IC50 value) of the compound of the invention was calculated with a concentration-inhibition ratio curve.

[2] = test system: Rat transient MCA occlusion (t-MCAo) model; assay: Infarct volume in rat transient MCA occlusion (t-MCAo) model; format: in vivo; details: intravenous 1 hour infusion immediately after reperfusion
Method: FIG. 1 represents an effect of the compound 50 on infarct volume in rat t-MCAo model. The infarct volumes of total (closed bar), cortex (solid bar) and sub-cortex (open bar) were determined 71 hrs after reperfusion. Data are presented as mean ±SEM. *p<0.05 vs vehicle-treated group (Dunnett's test).
Adult male Wistar rats (200-250 g) were anesthetized with 2% halothane in air. The right internal carotid artery (ICA) was carefully dissected. A silicon-coated suture (18 mm-long) was inserted to the ICA. Body temperature was maintained at 37° C. with a heating pad. […] After 1 hour of MCA occlusion, the thread was removed to allow reperfusion of the ischemic area. Rats were received intravenously 1 hour-infusion of vehicle (10% of HP-β-CD) or the compound 50 dissolved in vehicle immediately after reperfusion.
To measure infarct volume, rats were killed at 71 hours of reperfusion. Brains were perfused transcardially with physiological saline, and removed from skulls, cut into 2-mm coronal sections. The slices were immersed in 2% triphenyltetrazolium chloride (TTC) solution at 37° C. for 30 minutes.
All values were presented as mean ±SEM. For statistical analyses, Dunnett's multiple-range test was used.

Structure (SMILES)	IC50 [1] [µM]	reduction of total infarct volume as compared with vehicle-treated group ([2]; 0.01 mg/kg/min, 71 hours of reperfusion, significant) [%]	effect on infarct volume ([2]; from 0.001 mg/kg/min, doses 0.001, 0.01, 0.1 mg/kg/min)
CCCC[C@@H](O)C#CCCCCCCCCCCCCCC(=O)O [Compound 4, (R)-17-Hydroxyheneicos-15-ynoic acid]	10.3		
CCCC[C@@H](O)C#CCCCCCCCCCCCCC(=O)O [Compound 12, (R)-16-Hydroxyeicos-14-ynoic acid]	9.18		
CCCC[C@@H](O)/C=C\CCCCCCCCCCCCC(=O)O [Compound 50, (R)-(Z)-16-Hydroxyeicos-14-enoic acid]	8.29	35.3	reduced the infarct volume
CCCC[C@@H](O)/C=C\CCCCCCCCCCCC(=O)O [Compound 65, (R)-(Z)-15-Hydroxynonadec-13-enoic acid]	17.5		
